Experimental data from ChEMBL document CHEMBL3611978, “Synthesis and biological evaluation of novel 7-substituted 3-(4-phenoxyphenyl)thieno[3,2-c]pyridin-4-amines as potent Bruton's tyrosine kinase (BTK) inhibitors” (Bioorg Med Chem, 2015).

Molecular target: Vascular endothelial growth factor receptor 2 (Homo sapiens, UniProt P35968)
Experiment: Inhibition of KDR (unknown origin) after 1 hr by ELISA based assay

Sequence of Vascular endothelial growth factor receptor 2 (P35968 whole entry): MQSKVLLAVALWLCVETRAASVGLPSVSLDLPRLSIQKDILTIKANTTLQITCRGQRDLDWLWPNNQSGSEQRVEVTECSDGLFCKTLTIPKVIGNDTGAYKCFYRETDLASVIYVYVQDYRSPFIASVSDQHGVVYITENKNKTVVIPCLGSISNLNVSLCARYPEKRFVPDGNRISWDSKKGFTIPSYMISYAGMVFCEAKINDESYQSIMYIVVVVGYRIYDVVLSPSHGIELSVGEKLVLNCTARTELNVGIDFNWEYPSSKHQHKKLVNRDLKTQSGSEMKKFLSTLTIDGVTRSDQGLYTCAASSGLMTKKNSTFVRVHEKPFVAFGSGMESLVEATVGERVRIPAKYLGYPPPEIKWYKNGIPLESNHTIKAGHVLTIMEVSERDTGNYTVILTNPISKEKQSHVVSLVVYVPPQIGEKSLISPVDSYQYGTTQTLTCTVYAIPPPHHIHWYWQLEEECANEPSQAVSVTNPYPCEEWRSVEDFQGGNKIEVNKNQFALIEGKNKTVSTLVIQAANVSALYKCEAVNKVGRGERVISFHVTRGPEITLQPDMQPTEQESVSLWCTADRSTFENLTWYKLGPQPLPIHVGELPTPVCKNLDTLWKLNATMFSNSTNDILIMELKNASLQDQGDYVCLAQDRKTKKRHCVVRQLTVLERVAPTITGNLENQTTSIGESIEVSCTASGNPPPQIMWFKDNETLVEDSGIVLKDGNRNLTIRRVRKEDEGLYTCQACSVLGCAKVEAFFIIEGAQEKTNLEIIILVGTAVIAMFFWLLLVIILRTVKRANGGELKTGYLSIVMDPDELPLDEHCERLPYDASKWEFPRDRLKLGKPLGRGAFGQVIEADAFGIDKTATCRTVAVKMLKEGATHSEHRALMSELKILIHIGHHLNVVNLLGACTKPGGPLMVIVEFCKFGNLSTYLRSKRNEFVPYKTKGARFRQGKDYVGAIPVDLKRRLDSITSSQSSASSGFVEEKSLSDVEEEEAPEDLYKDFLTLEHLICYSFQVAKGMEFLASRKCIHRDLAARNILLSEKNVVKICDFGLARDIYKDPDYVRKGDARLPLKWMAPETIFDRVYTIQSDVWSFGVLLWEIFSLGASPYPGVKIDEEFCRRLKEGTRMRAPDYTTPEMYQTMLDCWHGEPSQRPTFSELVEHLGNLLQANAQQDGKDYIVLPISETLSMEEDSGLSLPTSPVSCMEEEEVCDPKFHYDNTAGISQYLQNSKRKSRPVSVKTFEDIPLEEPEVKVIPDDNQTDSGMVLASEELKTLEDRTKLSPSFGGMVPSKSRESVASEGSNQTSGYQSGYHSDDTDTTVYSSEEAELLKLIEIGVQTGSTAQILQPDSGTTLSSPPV

In the case of `Nc1ncc(-c2cnn(CC(=O)N3CCOCC3)c2)c2scc(-c3ccc(Oc4ccccc4)cc3)c12`, the IC50 is reported as 191 nM.

Molecular target: T1, Tyrosine-protein kinase JAK3 (Homo sapiens, UniProt P52333)
T1 sequence (P52333 whole entry): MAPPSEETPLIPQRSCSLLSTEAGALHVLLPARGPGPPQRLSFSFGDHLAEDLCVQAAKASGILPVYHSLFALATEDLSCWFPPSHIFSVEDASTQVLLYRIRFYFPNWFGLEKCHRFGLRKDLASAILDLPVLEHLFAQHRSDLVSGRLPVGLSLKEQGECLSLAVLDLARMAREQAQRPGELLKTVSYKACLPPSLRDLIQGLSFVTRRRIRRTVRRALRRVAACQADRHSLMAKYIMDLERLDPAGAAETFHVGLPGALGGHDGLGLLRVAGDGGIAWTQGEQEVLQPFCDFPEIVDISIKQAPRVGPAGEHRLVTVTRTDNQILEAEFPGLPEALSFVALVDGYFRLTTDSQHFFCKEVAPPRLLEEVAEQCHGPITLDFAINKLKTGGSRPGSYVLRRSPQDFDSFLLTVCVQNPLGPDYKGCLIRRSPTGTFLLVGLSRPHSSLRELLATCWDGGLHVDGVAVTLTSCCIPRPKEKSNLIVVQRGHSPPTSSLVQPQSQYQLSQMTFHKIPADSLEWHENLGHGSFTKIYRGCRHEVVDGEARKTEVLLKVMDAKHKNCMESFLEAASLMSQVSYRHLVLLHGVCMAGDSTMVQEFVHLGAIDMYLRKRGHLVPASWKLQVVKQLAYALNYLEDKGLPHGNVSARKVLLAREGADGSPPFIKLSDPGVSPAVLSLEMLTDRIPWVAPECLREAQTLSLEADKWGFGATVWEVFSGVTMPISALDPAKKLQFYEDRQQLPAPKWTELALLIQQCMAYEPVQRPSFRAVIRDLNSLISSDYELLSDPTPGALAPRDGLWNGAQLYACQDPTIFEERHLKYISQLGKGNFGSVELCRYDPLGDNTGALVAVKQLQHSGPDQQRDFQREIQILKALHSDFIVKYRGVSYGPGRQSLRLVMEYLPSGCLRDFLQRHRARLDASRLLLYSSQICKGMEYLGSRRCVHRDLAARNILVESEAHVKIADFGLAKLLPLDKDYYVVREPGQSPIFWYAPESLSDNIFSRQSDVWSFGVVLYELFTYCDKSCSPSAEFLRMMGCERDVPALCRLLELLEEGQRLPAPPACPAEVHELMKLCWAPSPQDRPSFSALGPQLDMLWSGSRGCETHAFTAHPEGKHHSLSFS
Experiment: Inhibition of JAK3 (unknown origin) after 1 hr by ELISA based assay

Molecule `Nc1ncc(-c2cnn(CC(=O)N3CCOCC3)c2)c2scc(-c3ccc(Oc4ccccc4)cc3)c12` has an IC50 of 3070 nM.

Molecular target: Tyrosine-protein kinase JAK2 (Homo sapiens, UniProt O60674)
Sequence (O60674 whole entry): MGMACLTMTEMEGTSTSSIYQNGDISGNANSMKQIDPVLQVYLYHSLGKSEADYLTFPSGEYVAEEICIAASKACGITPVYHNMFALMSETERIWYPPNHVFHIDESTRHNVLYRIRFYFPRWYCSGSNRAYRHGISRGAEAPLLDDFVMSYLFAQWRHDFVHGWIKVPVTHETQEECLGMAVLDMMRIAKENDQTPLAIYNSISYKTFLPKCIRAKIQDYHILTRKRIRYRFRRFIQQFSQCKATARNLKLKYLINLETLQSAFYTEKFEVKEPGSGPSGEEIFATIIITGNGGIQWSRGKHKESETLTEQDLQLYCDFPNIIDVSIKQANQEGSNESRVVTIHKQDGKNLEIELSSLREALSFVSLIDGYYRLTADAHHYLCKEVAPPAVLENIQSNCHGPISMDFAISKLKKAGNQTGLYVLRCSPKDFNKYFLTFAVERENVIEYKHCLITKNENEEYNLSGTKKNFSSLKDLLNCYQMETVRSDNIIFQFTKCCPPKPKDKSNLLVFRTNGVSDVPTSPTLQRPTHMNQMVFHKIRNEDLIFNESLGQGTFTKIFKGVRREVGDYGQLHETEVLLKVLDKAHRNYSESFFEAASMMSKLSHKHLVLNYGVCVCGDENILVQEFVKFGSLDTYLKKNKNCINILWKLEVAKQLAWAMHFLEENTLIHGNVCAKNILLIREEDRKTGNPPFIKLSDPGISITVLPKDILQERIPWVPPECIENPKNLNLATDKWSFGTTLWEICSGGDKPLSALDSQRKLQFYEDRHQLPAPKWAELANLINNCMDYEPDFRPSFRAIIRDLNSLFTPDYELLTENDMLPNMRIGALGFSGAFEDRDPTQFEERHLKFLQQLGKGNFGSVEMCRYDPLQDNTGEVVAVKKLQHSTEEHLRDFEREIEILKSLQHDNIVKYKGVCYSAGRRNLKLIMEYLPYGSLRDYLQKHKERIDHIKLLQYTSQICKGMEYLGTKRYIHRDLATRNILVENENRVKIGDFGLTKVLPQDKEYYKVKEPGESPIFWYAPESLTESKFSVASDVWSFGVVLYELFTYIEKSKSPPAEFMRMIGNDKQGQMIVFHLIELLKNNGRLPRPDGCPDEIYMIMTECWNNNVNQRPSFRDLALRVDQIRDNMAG
Experiment: Inhibition of JAK2 (unknown origin) after 1 hr by ELISA based assay

`Nc1ncc(-c2cnn(CC(=O)N3CCOCC3)c2)c2scc(-c3ccc(Oc4ccccc4)cc3)c12` gave an IC50 of 6860 nM.

Molecular target: Tyrosine-protein kinase BTK (Homo sapiens, UniProt Q06187)
Sequence (Q06187 whole entry): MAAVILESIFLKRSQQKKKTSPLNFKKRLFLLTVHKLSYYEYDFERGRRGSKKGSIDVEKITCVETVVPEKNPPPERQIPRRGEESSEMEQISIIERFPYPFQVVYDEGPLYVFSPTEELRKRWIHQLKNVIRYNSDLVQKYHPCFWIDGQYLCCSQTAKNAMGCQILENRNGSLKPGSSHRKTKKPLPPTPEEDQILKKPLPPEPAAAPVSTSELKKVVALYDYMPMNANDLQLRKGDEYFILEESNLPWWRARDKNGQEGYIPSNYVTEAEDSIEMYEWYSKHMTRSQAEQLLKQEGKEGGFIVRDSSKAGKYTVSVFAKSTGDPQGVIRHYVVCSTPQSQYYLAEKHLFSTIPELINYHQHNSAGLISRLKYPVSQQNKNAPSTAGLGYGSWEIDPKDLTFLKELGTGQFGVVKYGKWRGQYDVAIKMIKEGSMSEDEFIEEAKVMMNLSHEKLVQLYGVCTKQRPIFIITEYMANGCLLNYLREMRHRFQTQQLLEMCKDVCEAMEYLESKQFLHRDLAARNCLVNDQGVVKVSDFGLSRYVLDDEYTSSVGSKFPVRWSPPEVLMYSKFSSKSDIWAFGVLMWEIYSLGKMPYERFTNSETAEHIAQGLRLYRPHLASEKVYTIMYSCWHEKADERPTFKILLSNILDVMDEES
Experiment: Inhibition of BTK (unknown origin) after 1 hr by TR-FRET assay

First: CC(C)(C)OC(=O)N1CC=C(c2cnc(N)c3c(-c4ccc(Oc5ccccc5)cc4)csc23)CC1
Second: CC(C)(C)OC(=O)N1C=C(c2cnc(N)c3c(-c4ccc(Oc5ccccc5)cc4)csc23)CCC1
The IC50 of the first is 1.7-fold lower: 1660 nM for the first, 2870 nM for the second. The first is the more potent here.

`Nc1ncc(-c2cnn(CC(=O)N3CCCCC3)c2)c2scc(-c3ccc(Oc4ccccc4)cc3)c12` and `Nc1ncc(-c2cnn(CC(=O)N3CCOCC3)c2)c2scc(-c3ccc(Oc4ccccc4)cc3)c12` are within 1.5-fold of each other in IC50: 12.2 nM for the first, 11.8 nM for the second.

`Nc1ncc(-c2cnn(C3CCCNC3=O)c2)c2scc(-c3ccc(Oc4ccccc4)cc3)c12` (centres undefined) and `CC(=O)Cn1cc(-c2cnc(N)c3c(-c4ccc(Oc5ccccc5)cc4)csc23)cn1` are within 1.5-fold of each other in IC50: 9.5 nM for the first, 7.8 nM for the second.

Going from `C#CCn1cc(-c2cnc(N)c3c(-c4ccc(Oc5ccccc5)cc4)csc23)cn1` to `Nc1ncc(-c2cnn(CCC(=O)O)c2)c2scc(-c3ccc(Oc4ccccc4)cc3)c12`, the IC50 rises from 7.4 nM to 21 nM (2.8-fold).

Compared with `CNC(=O)CCn1cc(-c2cnc(N)c3c(-c4ccc(Oc5ccccc5)cc4)csc23)cn1`, `C=CC(=O)NCCn1cc(-c2cnc(N)c3c(-c4ccc(Oc5ccccc5)cc4)csc23)cn1` is 2.6-fold lower in IC50: 25.5 nM for the first, 9.9 nM for the second.

First: CS(=O)(=O)OC1CCCN(C(=O)CCn2cc(-c3cnc(N)c4c(-c5ccc(Oc6ccccc6)cc5)csc34)cn2)C1 (centres undefined)
Second: C=CC(=O)n1cc(-c2cnc(N)c3c(-c4ccc(Oc5ccccc5)cc4)csc23)cn1
The IC50 of the first is 31-fold lower: 54.9 nM for the first, 1690 nM for the second.

First: Nc1ncc(C2=CNCCC2)c2scc(-c3ccc(Oc4ccccc4)cc3)c12
Second: Nc1ncc(C2=CCNCC2)c2scc(-c3ccc(Oc4ccccc4)cc3)c12
The IC50 of the first is 4.2-fold higher: 3600 nM for the first, 854 nM for the second.

`CNC(=O)CN1C=C(c2cnc(N)c3c(-c4ccc(Oc5ccccc5)cc4)csc23)CCC1` and `C=CC(=O)N1C=C(c2cnc(N)c3c(-c4ccc(Oc5ccccc5)cc4)csc23)CCC1` are within 1.5-fold of each other in IC50: 456 nM for the first, 343 nM for the second.

`Nc1ncc(C2CCCNC2)c2scc(-c3ccc(Oc4ccccc4)cc3)c12` (centres undefined) and `Nc1ncc(C2CCNCC2)c2scc(-c3ccc(Oc4ccccc4)cc3)c12` cannot be ordered by IC50: > 10000 nM for the first, > 10000 nM for the second.

Going from `C=CC(=O)N1CCCC(c2cnc(N)c3c(-c4ccc(Oc5ccccc5)cc4)csc23)C1` (centres undefined) to `C=CC(=O)N1CC=C(c2cnc(N)c3c(-c4ccc(Oc5ccccc5)cc4)csc23)CC1`, the IC50 falls from 2300 nM to 183 nM (13-fold). The second is the more potent here.

Molecular target: Hepatocyte growth factor receptor (Homo sapiens, UniProt P08581)
Sequence (P08581 whole entry): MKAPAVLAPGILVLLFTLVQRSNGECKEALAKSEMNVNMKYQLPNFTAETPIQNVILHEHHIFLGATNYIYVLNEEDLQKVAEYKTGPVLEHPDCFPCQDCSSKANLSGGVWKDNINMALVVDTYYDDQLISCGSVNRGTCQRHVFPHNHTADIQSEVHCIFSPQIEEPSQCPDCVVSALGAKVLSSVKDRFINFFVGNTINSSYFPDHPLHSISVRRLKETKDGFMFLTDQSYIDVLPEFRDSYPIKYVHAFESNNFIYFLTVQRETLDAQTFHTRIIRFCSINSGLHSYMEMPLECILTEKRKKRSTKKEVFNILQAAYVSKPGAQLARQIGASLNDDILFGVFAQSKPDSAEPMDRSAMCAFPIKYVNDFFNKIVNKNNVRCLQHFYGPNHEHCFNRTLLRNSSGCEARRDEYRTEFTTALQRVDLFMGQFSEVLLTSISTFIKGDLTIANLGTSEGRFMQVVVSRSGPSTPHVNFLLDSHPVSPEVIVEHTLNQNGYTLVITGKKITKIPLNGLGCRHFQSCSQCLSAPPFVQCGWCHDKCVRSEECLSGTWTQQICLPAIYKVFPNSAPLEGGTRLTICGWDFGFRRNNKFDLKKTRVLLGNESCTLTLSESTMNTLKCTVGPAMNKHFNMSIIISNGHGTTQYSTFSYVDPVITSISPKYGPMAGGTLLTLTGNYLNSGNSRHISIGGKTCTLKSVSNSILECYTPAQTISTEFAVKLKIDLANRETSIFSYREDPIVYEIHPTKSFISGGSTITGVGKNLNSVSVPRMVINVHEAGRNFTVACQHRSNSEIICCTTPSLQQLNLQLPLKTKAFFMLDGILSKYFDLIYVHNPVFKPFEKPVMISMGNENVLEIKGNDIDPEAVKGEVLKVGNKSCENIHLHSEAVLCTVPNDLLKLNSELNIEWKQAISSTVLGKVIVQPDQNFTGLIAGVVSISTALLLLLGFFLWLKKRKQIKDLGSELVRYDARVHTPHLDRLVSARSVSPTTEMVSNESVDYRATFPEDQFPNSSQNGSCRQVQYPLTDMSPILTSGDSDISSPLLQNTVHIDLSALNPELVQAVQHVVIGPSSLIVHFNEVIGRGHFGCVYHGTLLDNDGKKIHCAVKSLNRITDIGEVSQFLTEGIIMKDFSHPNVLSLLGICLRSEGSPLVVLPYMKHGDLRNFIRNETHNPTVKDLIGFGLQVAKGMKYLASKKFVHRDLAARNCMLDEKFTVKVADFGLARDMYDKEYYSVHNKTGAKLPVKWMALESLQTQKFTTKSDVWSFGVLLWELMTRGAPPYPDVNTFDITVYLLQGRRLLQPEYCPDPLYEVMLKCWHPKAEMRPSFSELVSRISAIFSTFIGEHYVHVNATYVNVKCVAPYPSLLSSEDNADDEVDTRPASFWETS
Experiment: Inhibition of c-MET (unknown origin) after 1 hr by ELISA based assay

`Nc1ncc(-c2cnn(CC(=O)N3CCOCC3)c2)c2scc(-c3ccc(Oc4ccccc4)cc3)c12` was tested, and the IC50 was 2430 nM.
